From US7300946B2, “N-(substituted arylmethyl)-4-(disubstituted methyl) piperidines and pyridines” (Bayer CropScience AG, priority 2002, dated 2007)

System: tobacco budworm (Heliothis virescens [Fabricius])
Test: surface-treated diet test against the tobacco budworm
Format: in vivo
Details: tobacco budworm second instar larvae, surface-treated diet, 0.25 millimoles of candidate insecticide on the surface of the diet, five-day exposure; for Percent Mortality: compared to total number of insects infested; for Percent Growth Inhibition: inhibition of insect weight relative to untreated controls
Outline: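 Wheat germ artificial diet surface-treated with 40 µL of 50 mM DMSO stock diluted 1:7 in 1:1 water/acetone (0.25 millimolar on diet), or sub-multiples for rate tests. One second-instar larva per well, 25° C, 60% RH, 5 days; percent weight inhibition vs DMSO controls and percent mortality.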

Row | SMILES | Percent Mortality | Percent Growth Inhibition
1 | FC(F)(F)c1ccc(C(Oc2ccc(C(F)(F)F)cn2)C2CCN(Cc3ccc(Oc4ccccn4)cc3)CC2)cc1 (stereo not drawn) [Compound 437] | 100% | 100%
2 | FC(F)(F)c1ccc(C(Oc2cc(C(F)(F)F)ccn2)C2CCN(Cc3ccc(Oc4ccccn4)cc3)CC2)cc1 (stereo not drawn) [Compound 438] | 100% | 100%
3 | O=C(Nc1ccc(Cl)cn1)OC(c1ccc(C(F)(F)F)cc1)C1CCN(Cc2ccc(Oc3ccccn3)cc2)CC1 (stereo not drawn) [Compound 439] | 100% | 100%
4 | FC(F)(F)c1ccc(C(Oc2ccc(C(F)(F)F)cn2)C2CCN(Cc3ccc(Oc4ccc(Cl)nn4)cc3)CC2)cc1 (stereo not drawn) [Compound 440] | 100% | 100%
5 | FC(F)(F)c1ccc(C(Oc2cc(C(F)(F)F)ccn2)C2CCN(Cc3ccc(Oc4ccc(Cl)nn4)cc3)CC2)cc1 (stereo not drawn) [Compound 441] | 100% | 100%
6 | [O-][N+]1(Cc2ccc(Oc3ccccn3)cc2)CCC(C(Oc2ccc(C(F)(F)F)cn2)c2ccc(C(F)(F)F)cc2)CC1 (stereo not drawn) [Compound 442] | 100% | 100%
7 | FC(F)(F)c1ccc(C(Oc2cncc(Cl)c2)C2CCN(Cc3ccc(Oc4ccccn4)cc3)CC2)cc1 (stereo not drawn) [Compound 443] | 33% | 100%
8 | O=C(Nc1cccnc1)OC(c1ccc(C(F)(F)F)cc1)C1CCN(Cc2ccc(Oc3ccccn3)cc2)CC1 (stereo not drawn) [Compound 444] | 0% | 96%
9 | O=C(Nc1ccc(Cl)nc1)OC(c1ccc(C(F)(F)F)cc1)C1CCN(Cc2ccc(Oc3ccccn3)cc2)CC1 (stereo not drawn) [Compound 445] | 100% | 100%
10 | N#Cc1ccc(NC(=O)OC(c2ccc(C(F)(F)F)cc2)C2CCN(Cc3ccc(Oc4ccccn4)cc3)CC2)cn1 (stereo not drawn) [Compound 446] | 17% | 100%
11 | O=C(Nc1cccnc1Cl)OC(c1ccc(C(F)(F)F)cc1)C1CCN(Cc2ccc(Oc3ccccn3)cc2)CC1 (stereo not drawn) [Compound 447] | 100% | 100%
12 | O=C(Nc1ccc(C(F)(F)F)nc1)OC(c1ccc(C(F)(F)F)cc1)C1CCN(Cc2ccc(Oc3ccccn3)cc2)CC1 (stereo not drawn) [Compound 448] | 100% | 100%
13 | O=C(Nc1ccncc1)OC(c1ccc(C(F)(F)F)cc1)C1CCN(Cc2ccc(Oc3ccccn3)cc2)CC1 (stereo not drawn) [Compound 450] | 0% | 62%
14 | O=C(Nc1cc(Cl)nc(Cl)c1)OC(c1ccc(C(F)(F)F)cc1)C1CCN(Cc2ccc(Oc3ccccn3)cc2)CC1 (stereo not drawn) [Compound 451] | 100% | 100%
15 | FC(F)(F)c1ccc(C(Oc2ccc(Cl)nn2)C2CCN(Cc3ccc(Oc4ccccn4)cc3)CC2)cc1 (stereo not drawn) [Compound 452] | 67% | 100%
16 | Cn1nnc(-c2ccc(CN3CCC(C(Oc4ccc(Cl)nn4)c4ccc(OC(F)(F)F)cc4)CC3)cc2)n1 (stereo not drawn) [Compound 453] | 83% | 100%
17 | CCON=Cc1ccc(CN2CCC(C(Oc3ccc(C(F)(F)F)cc3)c3ccc(C(F)(F)F)cc3)CC2)cc1 (stereo not drawn) [Compound 454] | 100% | 100%
18 | FC(F)(F)c1ccc(OC(c2ccc(C(F)(F)F)cc2)C2CCN(Cc3ccc(Oc4ccccn4)cc3)CC2)cc1 (stereo not drawn) [Compound 455] | 100% | 100%
19 | FC(F)(F)Oc1ccc(C(Oc2ccc(C(F)(F)F)cc2)C2CCN(Cc3ccc(Oc4ncccn4)cc3)CC2)cc1 (stereo not drawn) [Compound 456] | 17% | 100%
20 | CC(C)OC(=O)Nc1ccc(COC(c2ccc(C(F)(F)F)cc2)C2CCN(Cc3ccc(NC(=O)OC(C)C)cc3)CC2)cc1 (stereo not drawn) [Compound 457] | 0% | 16%
21 | O=C(Nc1ccc(F)cc1)OC(c1ccc(OC(F)(F)F)cc1)C1CCN(Cc2ccccc2)CC1 (stereo not drawn) [Compound 458] | 0% | 94%
22 | O=C(Nc1ccc(F)cc1)OC(c1ccc(OC(F)(F)F)cc1)C1CCN(Cc2ccc(Cl)cc2)CC1 (stereo not drawn) [Compound 459] | 0% | 99%
23 | O=C(Nc1cc(F)cc(F)c1)OC(c1ccc(OC(F)(F)F)cc1)C1CCN(Cc2ccc(Cl)cc2)CC1 (stereo not drawn) [Compound 460] | 0% | 100%
24 | O=C(Nc1cc(F)cc(F)c1)OC(c1ccc(OC(F)(F)F)cc1)C1CCN(Cc2ccc(F)cc2)CC1 (stereo not drawn) [Compound 461] | 0% | 98%
25 | O=C(Nc1cc(F)cc(F)c1)OC(c1ccc(OC(F)(F)F)cc1)C1CCN(Cc2ccc(I)cc2)CC1 (stereo not drawn) [Compound 462] | 83% | 100%
26 | O=C(Nc1ccc(Cl)cc1)OC(c1ccc(C(F)(F)F)cc1)C1CCN(Cc2ccc(O)cc2)CC1 (stereo not drawn) [Compound 463] | 0% | 65%

Row | SMILES | Percent Mortality | Percent Growth Inhibition
27 | O=C(Nc1cc(F)cc(F)c1)OC(c1ccc(C(F)(F)F)cc1)C1CCN(Cc2ccc(O)cc2)CC1 (stereo not drawn) [Compound 464] | 0% | 63%
28 | Nc1ccc(CN2CCC(C(OC(=O)Nc3ccc(Cl)cc3)c3ccc(C(F)(F)F)cc3)CC2)cc1 (stereo not drawn) [Compound 465] | 0% | 92%
29 | Nc1ccc(CN2CCC(C(OC(=O)Nc3cc(F)cc(F)c3)c3ccc(C(F)(F)F)cc3)CC2)cc1 (stereo not drawn) [Compound 466] | 17% | 77%
30 | CCCCCc1ccc(CN2CCC(C(OC(=O)Nc3cc(F)cc(F)c3)c3ccc(C(F)(F)F)cc3)CC2)cc1 (stereo not drawn) [Compound 467] | 0% | 68%
31 | COc1ccc(CN2CCC(C(OC(=O)Nc3ccc(F)cc3)c3ccc(OC(F)(F)F)cc3)CC2)cc1 (stereo not drawn) [Compound 468] | 33% | 100%
32 | COc1ccc(CN2CCC(C(OC(=O)Nc3cc(F)cc(F)c3)c3ccc(OC(F)(F)F)cc3)CC2)cc1 (stereo not drawn) [Compound 469] | 17% | 100%
33 | CCCOc1ccc(CN2CCC(C(OC(=O)Nc3ccc(Cl)cc3)c3ccc(Cl)cc3)CC2)cc1 (stereo not drawn) [Compound 470] | 100% | 100%
34 | CCCOc1ccc(CN2CCC(C(OC(=O)Nc3ccc(F)cc3)c3ccc(Cl)cc3)CC2)cc1 (stereo not drawn) [Compound 471] | 100% | 100%
35 | CCCOc1ccc(CN2CCC(C(OC(=O)Nc3cccc(C(F)(F)F)c3)c3ccc(Cl)cc3)CC2)cc1 (stereo not drawn) [Compound 472] | 100% | 100%
36 | CCCOc1ccc(CN2CCC(C(OC(=O)Nc3ccc(C(F)(F)F)cc3)c3ccc(Cl)cc3)CC2)cc1 (stereo not drawn) [Compound 473] | 100% | 100%
37 | CCCOc1ccc(CN2CCC(C(OC(=O)Nc3cc(F)cc(F)c3)c3ccc(Cl)cc3)CC2)cc1 (stereo not drawn) [Compound 474] | 100% | 100%
38 | CCCOc1ccc(CN2CCC(C(OC(=O)Nc3ccc(Cl)cc3)c3ccc(F)cc3)CC2)cc1 (stereo not drawn) [Compound 475] | 100% | 100%
39 | CCCOc1ccc(CN2CCC(C(OC(=O)Nc3ccc(F)cc3)c3ccc(F)cc3)CC2)cc1 (stereo not drawn) [Compound 476] | 100% | 100%
40 | CCCOc1ccc(CN2CCC(C(OC(=O)Nc3cccc(C(F)(F)F)c3)c3ccc(F)cc3)CC2)cc1 (stereo not drawn) [Compound 477] | 100% | 100%
41 | CCCOc1ccc(CN2CCC(C(OC(=O)Nc3ccc(C(F)(F)F)cc3)c3ccc(F)cc3)CC2)cc1 (stereo not drawn) [Compound 478] | 100% | 100%
42 | CCCOc1ccc(CN2CCC(C(OC(=O)Nc3cc(F)cc(F)c3)c3ccc(F)cc3)CC2)cc1 (stereo not drawn) [Compound 479] | 100% | 100%
43 | CCCOc1ccc(CN2CCC(C(OC(=O)Nc3ccc(Cl)cc3)c3ccc(Cl)c(Cl)c3)CC2)cc1 (stereo not drawn) [Compound 480] | 100% | 100%
44 | CCCOc1ccc(CN2CCC(C(OC(=O)Nc3ccc(F)cc3)c3ccc(Cl)c(Cl)c3)CC2)cc1 (stereo not drawn) [Compound 481] | 100% | 100%
45 | CCCOc1ccc(CN2CCC(C(OC(=O)Nc3cc(F)cc(F)c3)c3ccc(Cl)c(Cl)c3)CC2)cc1 (stereo not drawn) [Compound 482] | 100% | 100%
46 | CCCOc1ccc(CN2CCC(C(OC(=O)Nc3cccc(C(F)(F)F)c3)c3ccc(Cl)c(Cl)c3)CC2)cc1 (stereo not drawn) [Compound 483] | 100% | 100%
47 | CCCOc1ccc(CN2CCC(C(OC(=O)Nc3ccc(C(F)(F)F)cc3)c3ccc(Cl)c(Cl)c3)CC2)cc1 (stereo not drawn) [Compound 484] | 100% | 100%
48 | CCCOc1ccc(CN2CCC(C(OC(=O)Nc3ccc(Cl)cc3)c3cccc(C(F)(F)F)c3)CC2)cc1 (stereo not drawn) [Compound 485] | 100% | 100%
49 | CCCOc1ccc(CN2CCC(C(OC(=O)Nc3ccc(F)cc3)c3cccc(C(F)(F)F)c3)CC2)cc1 (stereo not drawn) [Compound 486] | 100% | 100%
50 | CCCOc1ccc(CN2CCC(C(OC(=O)Nc3cc(F)cc(F)c3)c3cccc(C(F)(F)F)c3)CC2)cc1 (stereo not drawn) [Compound 487] | 100% | 100%
51 | CCCOc1ccc(CN2CCC(C(OC(=O)Nc3cccc(C(F)(F)F)c3)c3cccc(C(F)(F)F)c3)CC2)cc1 (stereo not drawn) [Compound 488] | 100% | 100%
